The values that follow come from ChEMBL document CHEMBL1811879, “Fragmental modeling of hPepT2 and analysis of its binding features by docking studies and pharmacophore mapping” (Bioorg Med Chem, 2011).

Where a SMILES comes first, the peptide text is derived from it. [ ]: non-standard residue; d: D form. Nle = CCCC[C@H](N)C(=O)O

In the experiment the target is T1, Solute carrier family 15 member 2 (Homo sapiens, UniProt Q16348).
T1 sequence (Q16348 whole entry): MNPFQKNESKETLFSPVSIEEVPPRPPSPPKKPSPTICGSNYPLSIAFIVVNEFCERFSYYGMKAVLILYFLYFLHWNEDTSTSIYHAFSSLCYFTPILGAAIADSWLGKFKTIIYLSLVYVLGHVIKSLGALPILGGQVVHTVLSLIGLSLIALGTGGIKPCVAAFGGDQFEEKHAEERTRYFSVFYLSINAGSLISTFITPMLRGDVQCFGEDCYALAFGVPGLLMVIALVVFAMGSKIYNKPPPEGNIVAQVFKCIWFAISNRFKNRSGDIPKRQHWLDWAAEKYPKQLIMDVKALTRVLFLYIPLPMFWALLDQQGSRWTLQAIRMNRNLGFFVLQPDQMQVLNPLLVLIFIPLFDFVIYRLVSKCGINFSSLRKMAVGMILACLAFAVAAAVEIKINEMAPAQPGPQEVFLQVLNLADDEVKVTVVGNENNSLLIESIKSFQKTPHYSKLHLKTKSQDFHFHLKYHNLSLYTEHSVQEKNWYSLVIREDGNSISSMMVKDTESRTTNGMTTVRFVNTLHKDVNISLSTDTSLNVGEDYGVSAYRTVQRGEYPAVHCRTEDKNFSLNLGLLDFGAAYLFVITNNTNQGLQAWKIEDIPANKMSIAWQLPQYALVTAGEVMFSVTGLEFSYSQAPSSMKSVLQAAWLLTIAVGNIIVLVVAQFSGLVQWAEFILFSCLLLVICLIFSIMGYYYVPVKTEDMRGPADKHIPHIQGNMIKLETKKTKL
The experiment can be described thus: Binding affinity to human PepT2 in SKTP cells. Format: ADME, cell-based.
Regarding `CO/N=C(\C(=O)N[C@@H]1C(=O)N2C(C(=O)[O-])=C(C[N+]3(C)CCCC3)CS[C@H]12)c1csc(N)n1`, the Ki (in general, a dissociation constant, usually derived from enzyme kinetics or from competition with a known ligand) was 11000 µM. This lies in the millimolar range. As for `C[C@H](N)C(=O)N[C@@H](C)C(=O)N[C@@H](C)C(=O)O`, the figure is 18 µM; as for `C[C@H](NC(=O)[C@@H](N)Cc1ccc(O)cc1)C(=O)O`, 4.4 µM; as for `N[C@@H](Cc1c[nH]c2ccccc12)C(=O)NCC(=O)N[C@@H](Cc1ccc(O)cc1)C(=O)O`, 1.7 µM.

`N[C@@H](CS)C(=O)NCC(=O)O` came in with a Ki of 29 µM.

The compound `CC(=O)N[C@@H](CCCCN)C(=O)N[C@@H](C)C(=O)O` (Ac-Lys-Ala-OH) came in with a Ki of 16 µM.

Compound `C[C@H](N)C(=O)N[C@H](C(=O)N[C@@H](C)C(=O)N[C@@H](C)C(=O)O)[C@@H](C)O` (H-ATAA-OH) registered a Ki of 550 µM.

Take `C[C@H](N)C(=O)N[C@@H](C)C(=O)N[C@@H](CC(=O)O)C(=O)O` (H-Ala-Ala-Asp-OH): the Ki came out at 160 µM. Compared with the last compound, the Ki is about 3.4-fold lower.

Take `C[C@H](N)C(=O)NCC(=O)O` (H-Ala-Gly-OH): the Ki was found to be 7 µM. Compared with the last compound, the Ki is about 23-fold lower. As for `C[C@H](N)C(=O)N[C@@H](CCCCN)C(=O)O` (H-Ala-Lys-OH), the figure is 23 µM; as for `C[C@H](N)C(=O)N1CCC[C@H]1C(=O)O` (H-Ala-Pro-OH), 12 µM.

`C[C@H](N)C(=O)N[C@@H](CO)C(=O)O` (H-Ala-Ser-OH): the Ki stood at 6 µM. Against the preceding compound, the Ki is about 2-fold lower.

`CCCC[C@H](NC(=O)[C@H](C)N)C(=O)O` (H-Ala-[Nle]-OH) displayed a Ki of 31 µM. Compared with the last compound, the Ki is about 5.2-fold higher.

In turn, `C[C@H](N)C(=O)N[C@H](C)C(=O)O` (H-Ala-[dA]-OH) returned a Ki of 270 µM. This Ki lies about 8.7-fold higher than the previous one. The compound `N[C@@H](CC(=O)O)C(=O)N[C@@H](CC(=O)O)C(=O)O` (H-Asp-Asp-OH) displayed a Ki of 150 µM. For `C[C@H](NC(=O)CN)C(=O)O` (H-Gly-Ala-OH) the value was 3.5 µM.

Take `NCC(=O)NCC(=O)O` (H-Gly-Gly-OH): the Ki was 54 µM. Against the preceding compound, the Ki is about 15-fold higher. For `NCCCC[C@H](NC(=O)[C@H](Cc1cnc[nH]1)NC(=O)CN)C(=O)O` (H-Gly-His-Lys-OH) the value was 3100 µM.

`NCC(=O)N[C@@H](Cc1c[nH]cn1)C(=O)O` (H-Gly-His-OH) showed a Ki of 39 µM.

The compound `CC[C@H](C)[C@H](N)C(=O)N[C@@H](Cc1ccc(O)cc1)C(=O)O` (H-Ile-Tyr-OH) gave a Ki of 8 µM. The compound `CC[C@H](C)[C@H](N)C(=O)N[C@H](C(=O)N[C@@H](Cc1ccc(O)cc1)C(=O)O)C(C)C` (H-Ile-Val-Tyr-OH) registered a Ki of 14 µM. Compared with the last compound, the Ki is about 1.8-fold higher. For `CC(C)C[C@H](N)C(=O)NCC(=O)NCC(=O)O` (H-Leu-Gly-Gly-OH) the value was 18 µM; for `CC(C)C[C@H](N)C(=O)N1CCC[C@H]1C(=O)O` (H-Leu-Pro-OH), 10 µM. As to `C[C@H](NC(=O)[C@@H](N)CCCCN)C(=O)O` (H-Lys-Ala-OH), the affinity, expressed as Ki, was 41 µM. For `CSCC[C@H](NC(=O)[C@@H](N)CCSC)C(=O)O` (H-Met-Met-OH) the value was 3 µM; for `N[C@@H](Cc1ccccc1)C(=O)NCC(=O)O` (H-Phe-Gly-OH), 14 µM.

With `N[C@@H](Cc1ccccc1)C(=O)N[C@@H](Cc1ccccc1)C(=O)O` (H-Phe-Phe-OH), the affinity corresponds to a Ki of 37 µM. As for `O=C(O)C[C@H](NC(=O)[C@@H]1CCCN1)C(=O)O` (H-Pro-Asp-OH), the figure is 2100 µM. `O=C(O)CC[C@H](NC(=O)[C@@H]1CCCN1)C(=O)O` (H-Pro-Glu-OH) showed a Ki of 2600 µM.

Turning to `NCCCC[C@H](NC(=O)[C@H](Cc1ccccc1)NC(=O)[C@@H]1CCCN1)C(=O)O` (H-Pro-Phe-Lys-OH), the Ki is 900 µM. For `C[C@H](NC(=O)[C@@H](N)CO)C(=O)O` (H-Ser-Ala-OH) the value was 7 µM; for `C[C@H](NC(=O)[C@@H](N)Cc1c[nH]c2ccccc12)C(=O)O` (H-Trp-Ala-OH), 4 µM; for `N[C@@H](Cc1c[nH]c2ccccc12)C(=O)N[C@@H](Cc1c[nH]c2ccccc12)C(=O)O` (H-Trp-Trp-OH), 0.8 µM. With `N[C@@H](Cc1c[nH]c2ccccc12)C(=O)N[C@@H](Cc1c[nH]c2ccccc12)C(=O)N[C@@H](Cc1c[nH]c2ccccc12)C(=O)O` (H-Trp-Trp-Trp-OH), the Ki turned out to be 0.3 µM. Against the preceding compound, the Ki is about 2.7-fold lower. As for `N[C@@H](Cc1ccc(O)cc1)C(=O)N[C@@H](Cc1ccccc1)C(=O)O` (H-Tyr-Phe-OH), the figure is 9 µM; as for `CC(C)[C@H](N)C(=O)N1CCC[C@H]1C(=O)O` (H-Val-Pro-OH), 39 µM; as for `CC(C)[C@H](N)C(=O)N[C@@H](Cc1ccc(O)cc1)C(=O)O` (H-Val-Tyr-OH), 2.5 µM. For `C[C@H](NC(=O)[C@@H](C)N)C(=O)O` (H-[dA]-Ala-OH) the value was 130 µM; for `CC1(C)S[C@@H]2[C@H](NC(=O)[C@H](N)c3ccc(O)cc3)C(=O)N2[C@H]1C(=O)O` [AMOXICILLIN], 430 µM. Compound `CC1=C(C(=O)O)N2C(=O)[C@@H](NC(=O)[C@H](N)c3ccc(O)cc3)[C@H]2SC1` [CEFADROXIL] yielded a Ki of 3 µM. For `Cn1nnnc1SCC1=C(C(=O)O)N2C(=O)[C@@H](NC(=O)[C@H](O)c3ccccc3)[C@H]2SC1` [CEFAMANDOLE] the value was 2800 µM; for `C=CC1=C(C(=O)O)N2C(=O)[C@@H](NC(=O)/C(=N\OCC(=O)O)c3csc(N)n3)[C@H]2SC1` [CEFIXIME], 2600 µM. For `CO[C@@]1(NC(=O)CSCC#N)C(=O)N2C(C(=O)O)=C(CSc3nnnn3C)CS[C@@H]21` [CEFMETAZOLE] the value was 4300 µM; for `CO/N=C(\C(=O)N[C@@H]1C(=O)N2C(C(=O)O)=C(CSc3nc(C)c(CC(=O)O)s3)CS[C@H]12)c1csc(N)n1` [CEFODIZIME], 9000 µM; for `CO/N=C(\C(=O)N[C@@H]1C(=O)N2C(C(=O)O)=C(COC(C)=O)CS[C@H]12)c1csc(N)n1` [CEFOTAXIME], 20000 µM.

In turn, `COCC1=C(C(=O)O)N2C(=O)[C@@H](NC(=O)/C(=N\OC)c3csc(N)n3)[C@H]2SC1` [CEFPODOXIME] returned a Ki of 31000 µM. For `CO/N=C(\C(=O)N[C@@H]1C(=O)N2C(C(=O)O)=C(COC(N)=O)CS[C@H]12)c1ccco1` [CEFUROXIME] the value was 12600 µM. Compound `CC1=C(C(=O)O)N2C(=O)[C@@H](NC(=O)[C@H](N)c3ccccc3)[C@H]2SC1` [CEPHALEXIN ANHYDROUS] displayed a Ki of 75 µM. `O=C(Cc1cccs1)N[C@@H]1C(=O)N2C(C(=O)[O-])=C(C[n+]3ccccc3)CS[C@H]12` [CEPHALORIDINE] registered a Ki of 8500 µM. Against the preceding compound, the Ki is about 110-fold higher. `CC(=O)OCC1=C(C(=O)O)N2C(=O)[C@@H](NC(=O)Cc3cccs3)[C@H]2SC1` [CEPHALOTHIN] displayed a Ki of 8300 µM. As for `CC(=O)OCC1=C(C(=O)O)N2C(=O)[C@@H](NC(=O)CSc3ccncc3)[C@H]2SC1` [CEPHAPIRIN SODIUM], the figure is 11100 µM; as for `Cc1onc(-c2ccccc2Cl)c1C(=O)N[C@@H]1C(=O)N2[C@@H]1SC(C)(C)[C@@H]2C(=O)O` [CLOXACILLIN], 950 µM. As for `CC1(C)S[C@@H]2[C@H](NC(=O)C3(N)CCCCC3)C(=O)N2[C@H]1C(=O)O` [CYCLACILLIN], the figure is 44 µM; as for `Cc1onc(-c2c(Cl)cccc2Cl)c1C(=O)N[C@@H]1C(=O)N2[C@@H]1SC(C)(C)[C@@H]2C(=O)O` [DICLOXACILLIN], 420 µM; as for `CC(=O)CCC(=O)O` [LEVULINIC ACID], 230 µM. As for `C=N[C@@H](C(=O)N[C@@H]1C(=O)N2[C@@H]1SC(C)(C)[C@@H]2C(=O)O)c1ccccc1` [METAMPICILLIN], the figure is 730 µM. In the case of `Cc1onc(-c2ccccc2)c1C(=O)N[C@@H]1C(=O)N2[C@@H]1SC(C)(C)[C@@H]2C(=O)O` [OXACILLIN], the Ki worked out at 3300 µM. Compared with the last compound, the Ki is about 4.5-fold higher. As for H-AATAA-OH, the figure is 190 µM; as for H-FATAA-OH, 240 µM.
